Assay results: patent publication US9902696B2, “1,4-substituted piperidine derivatives” (Cephalon, Inc., priority 2015, dated 2018)
Structures can show the parent of a compound that is named as a salt. Where two headings read alike, the source gives them in different places.

Tests used:
[1] = biological target: T1, recombinant human baculovirus-expressed GST-tagged FASN (Homo sapiens, UniProt P49327); assay: FASN enzyme activity assay, fluorescence-based detection of CoA with CPM; assay type: biochemical; conditions: 5 nM FASN, 150 μM NADPH, 10 μM acetyl-CoA, 25 μM malonyl-CoA, 90 minutes incubation
T1 construct: GST
T1 sequence (P49327 whole entry): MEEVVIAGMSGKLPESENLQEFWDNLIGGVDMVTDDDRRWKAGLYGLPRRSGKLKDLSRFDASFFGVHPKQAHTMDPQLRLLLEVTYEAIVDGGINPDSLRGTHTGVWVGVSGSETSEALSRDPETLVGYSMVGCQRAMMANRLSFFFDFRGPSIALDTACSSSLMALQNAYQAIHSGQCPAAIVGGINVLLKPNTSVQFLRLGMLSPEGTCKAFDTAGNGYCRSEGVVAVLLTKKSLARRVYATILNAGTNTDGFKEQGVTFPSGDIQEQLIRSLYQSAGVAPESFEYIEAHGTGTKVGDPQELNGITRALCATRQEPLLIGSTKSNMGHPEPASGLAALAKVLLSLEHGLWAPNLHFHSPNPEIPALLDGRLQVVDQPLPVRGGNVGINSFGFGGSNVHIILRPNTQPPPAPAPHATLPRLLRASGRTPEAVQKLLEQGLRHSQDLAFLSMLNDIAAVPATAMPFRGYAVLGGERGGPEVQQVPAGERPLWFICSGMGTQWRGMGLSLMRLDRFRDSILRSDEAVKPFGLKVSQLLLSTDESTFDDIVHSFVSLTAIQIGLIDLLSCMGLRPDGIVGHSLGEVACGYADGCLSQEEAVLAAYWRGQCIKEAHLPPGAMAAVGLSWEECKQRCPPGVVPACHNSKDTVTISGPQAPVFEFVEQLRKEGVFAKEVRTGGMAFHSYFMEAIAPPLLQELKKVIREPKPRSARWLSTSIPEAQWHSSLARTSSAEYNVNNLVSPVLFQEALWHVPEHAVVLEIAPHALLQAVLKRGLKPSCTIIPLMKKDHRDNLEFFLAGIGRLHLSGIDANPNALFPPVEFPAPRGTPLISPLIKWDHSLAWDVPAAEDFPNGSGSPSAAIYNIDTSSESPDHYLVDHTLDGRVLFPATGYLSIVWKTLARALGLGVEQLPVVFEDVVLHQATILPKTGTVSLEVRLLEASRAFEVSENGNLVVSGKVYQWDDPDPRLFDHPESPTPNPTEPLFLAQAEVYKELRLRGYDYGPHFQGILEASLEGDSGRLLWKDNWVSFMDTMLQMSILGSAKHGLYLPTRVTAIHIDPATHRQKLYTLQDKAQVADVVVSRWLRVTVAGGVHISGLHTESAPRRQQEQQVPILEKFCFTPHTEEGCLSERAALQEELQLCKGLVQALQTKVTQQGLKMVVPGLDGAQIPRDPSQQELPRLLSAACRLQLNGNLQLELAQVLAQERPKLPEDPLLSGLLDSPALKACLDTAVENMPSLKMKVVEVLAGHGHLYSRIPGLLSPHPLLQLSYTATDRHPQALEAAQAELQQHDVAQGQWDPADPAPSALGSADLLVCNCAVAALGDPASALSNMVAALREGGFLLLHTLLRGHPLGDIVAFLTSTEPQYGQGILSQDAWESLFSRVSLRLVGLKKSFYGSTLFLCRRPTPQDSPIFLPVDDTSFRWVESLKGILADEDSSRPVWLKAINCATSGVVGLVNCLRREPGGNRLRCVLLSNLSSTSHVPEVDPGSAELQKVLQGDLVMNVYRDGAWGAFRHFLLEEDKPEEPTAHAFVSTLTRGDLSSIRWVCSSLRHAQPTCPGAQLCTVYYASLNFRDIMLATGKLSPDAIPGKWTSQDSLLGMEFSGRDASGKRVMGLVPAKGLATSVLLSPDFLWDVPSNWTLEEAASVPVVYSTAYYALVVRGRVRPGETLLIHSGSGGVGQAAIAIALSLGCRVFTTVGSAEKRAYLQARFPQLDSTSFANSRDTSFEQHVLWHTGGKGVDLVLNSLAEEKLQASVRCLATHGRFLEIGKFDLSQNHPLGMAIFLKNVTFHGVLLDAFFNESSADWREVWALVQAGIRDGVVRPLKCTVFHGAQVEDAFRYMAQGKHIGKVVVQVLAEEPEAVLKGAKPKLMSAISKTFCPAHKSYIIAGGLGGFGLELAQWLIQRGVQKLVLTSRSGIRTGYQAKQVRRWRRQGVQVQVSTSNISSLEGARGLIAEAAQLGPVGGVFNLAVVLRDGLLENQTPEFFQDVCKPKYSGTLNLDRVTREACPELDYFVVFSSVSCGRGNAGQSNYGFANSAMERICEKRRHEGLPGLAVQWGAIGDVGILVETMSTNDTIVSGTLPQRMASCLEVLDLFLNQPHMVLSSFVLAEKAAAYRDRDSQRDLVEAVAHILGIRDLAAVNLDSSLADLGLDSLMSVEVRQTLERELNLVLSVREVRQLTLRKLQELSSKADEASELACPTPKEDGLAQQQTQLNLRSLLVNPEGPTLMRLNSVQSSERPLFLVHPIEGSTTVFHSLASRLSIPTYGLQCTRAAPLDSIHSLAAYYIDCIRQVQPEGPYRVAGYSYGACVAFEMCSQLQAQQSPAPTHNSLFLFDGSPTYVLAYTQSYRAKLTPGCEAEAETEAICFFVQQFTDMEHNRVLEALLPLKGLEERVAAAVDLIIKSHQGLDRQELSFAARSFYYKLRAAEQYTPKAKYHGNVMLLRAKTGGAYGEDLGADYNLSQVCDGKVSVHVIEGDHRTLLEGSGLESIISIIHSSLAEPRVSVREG
Procedure, shortened: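 CoA product reacted with thiol-reactive CPM (diluted to 50 μM in 70% ethanol), read at 390/530 nm after 30 min. Preceding reaction: 90 min, 5 nM recombinant GST-FASN, 150 μM NADPH, 10 μM acetyl-CoA, 25 μM malonyl-CoA, pH 7.5 HEPES, 0.5% DMSO. IC50s fitted by nonlinear sigmoidal regression.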

[2] = read-out: IC50 data for Additional Compounds of Formulae I-V(a): Activity

Compound	IC50 [1, 2] [nM]	melting point [°C]	IC50 ([1]; read-out: IC50 data for Compounds of Formulae I-V/V(a): Activity) [nM]
CCCNC(=O)N1CCC(Oc2ccc(-c3cnc4ccccc4c3C)cc2)CC1 [Example 591, 4-[4-(4-Methyl-3-quinolyl)phenoxy]-N-propyl-piperidine-1-carboxamide]	1 to 99	171	–
O=C(C1CC1)N1CCC(Oc2ccc(-c3ccc4cnccc4c3)nc2)CC1 (as salt: HCl) [Example 149, Cyclopropyl-[4-(6-isoquinolin-6-yl-pyridin-3-yloxy)-piperidin-1-yl]-methanone, 2HCl]	–	136 to 146	–
CC(C)CONC(=O)N1CCC(Oc2ccc(-c3ccc4nccn4c3Cl)cc2)CC1 [Example 571, 4-[4-(5-Chloroimidazo[1,2-a]pyridin-6-yl)phenoxy]-N-isobutoxy-piperidine-1-carboxamide]	1000 to 10000	157	–
O=C(C1CC1)N1CCC(Oc2ccc(-c3cnc4ccccc4c3)nc2)CC1 (as salt: HCl) [Example 142, Cyclopropyl-[4-(6-quinolin-3-yl-pyridin-3-yloxy)-piperidin-1-yl]-methanone, 2HCl]	–	230 to 234	–
O=C(NO)N1CCC(Oc2ccc(-c3ccc4nccn4c3Cl)cc2)CC1 [Example 575, 4-[4-(5-Chloroimidazo[1,2-a]pyridin-6-yl)phenoxy]piperidine-1-carbohydroxamic acid]	1 to 99	232	–
CCONC(=O)N1CCC(Oc2ccc(-c3cnc4ccccc4c3C)cc2)CC1 [Example 587, N-Ethoxy-4-[4-(4-methyl-3-quinolyl)phenoxy]piperidine-1-carboxamide]	1 to 99	152	–
Cc1c(-c2ccc(OC3CCN(C(=O)NOC(C)C)CC3)cc2)cnc2ccccc12 [Example 588, N-Isopropoxy-4-[4-(4-methyl-3-quinolyl)phenoxy]piperidine-1-carboxamide]	1 to 99	80	–
CC(C)C(=O)N1CCC(Sc2ccc(-c3ccc4cccnc4c3)cc2)CC1 (as salt: HCl) [Example 520]	–	120	–
O=C(C1CC1)N1CCC(Oc2ccc(-c3cnc4ccccc4c3)cc2)CC1 (as salt: HCl) [Example 100, Cyclopropyl-[4-(4-quinolin-3-yl-phenoxy)-piperidin-1-yl]-methanone,HCl]	–	170 to 173	–
CCC(=O)N1CCC(Sc2ccc(-c3cnc4ccccc4c3)cc2)CC1 (as salt: HCl) [Example 518, 1-(4-((4-(Quinolin-3-yl)phenyl)thio)piperidin-1-yl)propan-1-one, HCl]	–	70	–
COCCNC(=O)N1CCC(Oc2ccc(-c3ccc4nccn4c3Cl)cc2)CC1 [Example 567, 4-[4-(5-Chloroimidazo[1,2-a]pyridin-6-yl)phenoxy]-N-(2-methoxyethyl)-piperidine-1-carboxamide]	100 to 999	135 to 138	–
CCNC(=O)N1CCC(Oc2ccc(-c3ccc4nccn4c3Cl)cc2)CC1 [Example 564, 4-[4-(5-Chloroimidazo[1,2-a]pyridin-6-yl)phenoxy]-N-ethyl-piperidine-1-carboxamide]	1000 to 10000	189 to 193	–
CCC(=O)N1CCC(Sc2ccc(-c3ccc4cnccc4c3)cc2)CC1 (as salt: HCl) [Example 517, 1-(4-((4-(Isoquinolin-6-yl)phenyl)thio)piperidin-1-yl)propan-1-one, HCl]	–	222	–
CCC(=O)N1CCC(Oc2ccc(-c3cnc4ccccc4c3)cc2Cl)CC1 [Example 191, 1-[4-(2-Chloro-4-quinolin-3-yl-phenoxy)-piperidin-1-yl]-propan-1-one]	–	183 to 185	1000 to 10000
O=C(C1CCCC1)N1CCC(Oc2ccc(-c3cnc4ccccc4c3)cc2)CC1 (as salt: HCl) [Example 102, Cyclopentyl-[4-(4-quinolin-3-yl-phenoxy)-piperidin-1-yl]-methanone, 2HCl]	–	145 to 147	–
CC(C)C(=O)N1CCC(Sc2ccc(-c3ccc4cnccc4c3)cc2)CC1 (as salt: HCl) [Example 521, 1-(4-((4-(Isoquinolin-6-yl)phenyl)thio)piperidin-1-yl)-2-methylpropan-1-one HCl]	–	228	–
O=C(C1CC1)N1CCC(Oc2ccc(-c3ccc4cccnc4c3)nc2)CC1 (as salt: HCl) [Example 146, Cyclopropyl-[4-(6-quinolin-7-yl-pyridin-3-yloxy)-piperidin-1-yl]-methanone, 2HCl]	–	170 to 175	–
CCC(=O)N1CCC(Oc2ccc(-c3cnc4ccccc4c3)nc2)CC1 (as salt: HCl) [Example 140, 1-[4-(6-Quinolin-3-yl-pyridin-3-yloxy)-piperidin-1-yl]-propan-1-one, 2HCl]	–	207 to 212	–

Compound	IC50 [1, 2] [nM]	melting point [°C]	IC50 ([1]; read-out: IC50 data for Compounds of Formulae I-V/V(a): Activity) [nM]
Cc1nccc2cc(-c3ccc(OC4CCN(C(=O)NO)CC4)cc3)ccc12 [Example 585, 4-[4-(1-Methyl-6-isoquinolyl)phenoxy]piperidine-1-carbohydroxamic acid]	100 to 999	185	–
CCONC(=O)N1CCC(Oc2ccc(-c3ccc4c(C)nccc4c3)cc2)CC1 [Example 586, N-Ethoxy-4-[4-(1-methyl-6-isoquinolyl)phenoxy]piperidine-1-carboxamide]	1000 to 10000	208	–
Cc1c(-c2ccc(OC3CCN(C(=O)NCC(C)C)CC3)cc2)cnc2ccccc12 [Example 590, N-Isobutyl-4-[4-(4-methyl-3-quinolyl)phenoxy]piperidine-1-carboxamide]	1 to 99	153	–
O=C(NCC1CC1)N1CCC(Oc2ccc(-c3ccc4nccn4c3Cl)cc2)CC1 [Example 568, 4-[4-(5-Chloroimidazo[1,2-a]pyridin-6-yl)phenoxy]-N-(cyclopropylmethyl)-piperidine-1-carboxamide]	1000 to 10000	183 to 185	–
O=C(C1CCC1)N1CCC(Oc2ccc(-c3cnc4ccccc4c3)cc2)CC1 (as salt: HCl) [Example 101, Cyclobutyl-[4-(4-quinolin-3-yl-phenoxy)-piperidin-1-yl]-methanone,HCl]	–	164 to 166	–
CCCONC(=O)N1CCC(Oc2ccc(-c3ccc4c(C)nccc4c3)cc2)CC1 [Example 584, 4-[4-(1-Methyl-6-isoquinolyl)phenoxy]-N-propoxypiperidine-1-carboxamide]	1 to 99	165	–
NC(=O)N1CCC(Oc2ccc(-c3ccc4nccn4c3Cl)cc2)CC1 [Example 577, 4-[4-(5-Chloroimidazo[1,2-a]pyridin-6-yl)phenoxy]piperidine-1-carboxamide]	100 to 999	204	–
CCCONC(=O)N1CCC(Oc2ccc(-c3cnc4ccccc4c3C)cc2)CC1 [Example 589, 4-[4-(4-Methyl-3-quinolyl)phenoxy]-N-propoxy-piperidine-1-carboxamide]	1 to 99	75	–
CCC(=O)N1CC[C@@H](Oc2ccc(-c3ccc4cccnc4c3)cc2)C1 (as salt: HCl) [Example 344, (R)-1-(3-(4-(Quinolin-7-yl)phenoxy)pyrrolidin-1-yl)propan-1-one, HCl]	–	53	–
CCC(=O)N1CCC(Oc2ccc(-c3ccc4cnccc4c3)nc2)CC1 (as salt: HCl) [Example 147, 1-[4-(6-Isoquinolin-6-yl-pyridin-3-yloxy)-piperidin-1-yl]-propan-1-one, 2HCl]	–	236 to 245	–
CCC(=O)N1CC[C@@H](Oc2ccc(-c3cnc4ccccc4c3)cc2)C1 (as salt: HCl) [Example 345, (R)-1-(3-(4-(quinolin-3-yl)phenoxy)pyrrolidin-1-yl)propan-1-one, HCl]	–	51	–
CCC(=O)N1CCC(Sc2ccc(-c3cncc4ccccc34)cc2)CC1 (as salt: HCl) [Example 519, 1-(4-((4-(Isoquinolin-4-yl)phenyl)thio)piperidin-1-yl)propan-1-one, HCl]	–	88	–
CC(C)C(=O)N1CCC(Oc2ccc(-c3ccc4cccnc4c3)nc2)CC1 (as salt: HCl) [Example 145, 2-Methyl-1-[4-(6-quinolin-7-yl-pyridin-3-yloxy)-piperidin-1-yl]-propan-1-one, 2HCl]	–	170 to 179	–
CC(C)C(=O)N1CCC(Sc2ccc(-c3cnc4ccccc4c3)cc2)CC1 (as salt: HCl) [Example 522, 2-Methyl-1-(4-((4-(quinolin-3-yl)phenyl)thio)piperidin-1-yl)propan-1-one, HCl]	–	130	–
CC(C)C(=O)N1CCC(Oc2ncc(-c3cnc4ccccc4c3)cn2)CC1 (as salt: HCl) [Example 138, 2-Methyl-1-[4-(5-quinolin-3-yl-pyrimidin-2-yloxy)-piperidin-1-yl]-propan-1-one, 2HCl]	–	124 to 130	–
CCC(=O)N1CC[C@H](Oc2ccc(-c3cnc4ccccc4c3)cc2)C1 (as salt: HCl) [Example 343, (S)-1-(3-(4-(Quinolin-3-yl)phenoxy)pyrrolidin-1-yl)propan-1-one, HCl]	–	60	–
O=C(C1CC1)N1CCC(Oc2ncc(-c3cnc4ccccc4c3)cn2)CC1 (as salt: HCl) [Example 139, Cyclopropyl-[4-(5-quinolin-3-yl-pyrimidin-2-yloxy)-piperidin-1-yl]-methanone, 2HCl]	–	150 to 153	–
CC(C)C(=O)N1CCC(Oc2ccc(-c3cnc4ccccc4c3)nc2)CC1 (as salt: HCl) [Example 141, 2-Methyl-1-[4-(6-quinolin-3-yl-pyridin-3-yloxy)-piperidin-1-yl]-propan-1-one, 2HCl]	–	99 to 102	–
